Measured values: patent US4060606A (Leo Pharmaceutical Products Ltd. A/S, priority 1976, dated 1977)
In brackets after ≈: the same amount, converted by molar mass.

Key:
Assay in all cases: In vitro antibacterial activity, concentrations required for 50% inhibition
Type in all cases: cell-based
[1] = test system: Bacillus subtilis Leo KA3; conditions: LEOKA3
Text: (§1) Now, however, it has been found, that the compounds of the present invention both in vitro and in vivo show interesting antimicrobial and pharmacokinetic properties. Thereby the compounds of the invention can be used in the treatment of bacterial infections in humans and animals.

[2] = test system: Bacteroides fragilis Leo JA2; conditions: LEOJA2
Text: as §1

[3] = test system: Staph. aureus Leo CC 178B; conditions: Staphylococcus aureus, LEOCC178B
Text: as §1

Strep. pyogenes Leo EC = conditions: Streptococcus pyogenes
Text: as §1

Strep. species Leo EG2 = test system: Strep. species Leo EG2
Text: as §1

SMILES | IC50 [1] [µg/mL] | IC50 [2] [µg/mL] | IC50 [3] [µg/mL] | IC50 (Strep. pyogenes Leo EC) [µg/mL] | IC50 (Strep. species Leo EG2) [µg/mL]
CC(C)=CCC/C(C(=O)O)=C1/[C@@H](SC(C)C)C[C@@]2(C)[C@H]1C[C@@H](O)[C@H]1[C@@]3(C)CC[C@@H](O)[C@@H](C)[C@@H]3CC[C@@]12C [Example 1, 16-Deacetoxy-16β-isopropylthiofusidic acid] | 0.02 (≈ 0.0375 µM) | 5 (≈ 9.38 µM) | 0.032 (≈ 0.0601 µM) | 0.2 (≈ 0.375 µM) | 1 (≈ 1.88 µM)
CC(C)CCC/C(C(=O)O)=C1/[C@@H](SC(C)C)C[C@@]2(C)[C@H]1C[C@@H](O)[C@H]1[C@@]3(C)CC[C@@H](O)[C@@H](C)[C@@H]3CC[C@@]12C [Example 11, 16-Deacetoxy-16β-isopropylthio-24,25-dihydrofusidic acid] | 0.008 (≈ 0.015 µM) | 4 (≈ 7.48 µM) | 0.016 (≈ 0.0299 µM) | 0.04 (≈ 0.0748 µM) | 0.1 (≈ 0.187 µM)
CC(C)=CCC/C(C(=O)O)=C1/[C@@H](SC(C)C)C[C@@]2(C)[C@H]1CC(=O)[C@H]1[C@@]3(C)CC[C@@H](O)[C@@H](C)[C@@H]3CC[C@@]12C [Example 32, 11-Keto-16-deacetoxy-16β-isopropylthiofusidic acid] | 0.02 (≈ 0.0377 µM) | 3.2 (≈ 6.03 µM) | 0.02 (≈ 0.0377 µM) | 0.2 (≈ 0.377 µM) | 0.63 (≈ 1.19 µM)
CC(C)CCC/C(C(=O)O)=C1/[C@@H](SC(C)C)C[C@@]2(C)[C@H]1CC(=O)[C@H]1[C@@]3(C)CC[C@@H](O)[C@@H](C)[C@@H]3CC[C@@]12C [Example 33, 11-Keto-16-deacetoxy-16β-isopropylthio-24,25-dihydrofusidic acid] | 0.05 (≈ 0.0938 µM) | 2 (≈ 3.75 µM) | 0.04 (≈ 0.0751 µM) | 0.32 (≈ 0.601 µM) | 0.79 (≈ 1.48 µM)
CC(C)=CCC/C(C(=O)O)=C1/[C@@H](SC(C)C)C[C@@]2(C)[C@H]1C[C@@H](O)[C@H]1[C@@]3(C)CCC(=O)[C@@H](C)[C@@H]3CC[C@@]12C [Example 34, 3-Keto-16-deacetoxy-16β-isopropylthiofusidic acid] | 0.05 (≈ 0.0942 µM) | 5 (≈ 9.42 µM) | 0.04 (≈ 0.0754 µM) | 0.4 (≈ 0.754 µM) | 1 (≈ 1.88 µM)
CC(C)=CCC/C(C(=O)O)=C1/[C@@H]([S+]([O-])C(C)C)C[C@@]2(C)[C@H]1C[C@@H](O)[C@H]1[C@@]3(C)CC[C@@H](O)[C@@H](C)[C@@H]3CC[C@@]12C (stereo partly drawn) [Example 35, 16-deacetoxy-16β-isopropylsulfinylfusidic acid] | 0.4 (≈ 0.729 µM) | 1.3 (≈ 2.37 µM) | 0.05 (≈ 0.0911 µM) | 0.2 (≈ 0.364 µM) | 0.32 (≈ 0.583 µM)
CC(C)CCC/C(C(=O)O)=C1/[C@@H]([S+]([O-])C(C)C)C[C@@]2(C)[C@H]1C[C@@H](O)[C@H]1[C@@]3(C)CC[C@@H](O)[C@@H](C)[C@@H]3CC[C@@]12C (stereo partly drawn) [Example 42, 16-Deacetoxy-16β-isopropylsulfinyl-24,25-dihydrofusidic acid] | 0.16 (≈ 0.29 µM) | 1.6 (≈ 2.9 µM) | 0.04 (≈ 0.0726 µM) | 0.16 (≈ 0.29 µM) | 0.5 (≈ 0.908 µM)
CCO[C@H]1C[C@@]2(C)[C@@H](C[C@@H](O)[C@H]3[C@@]4(C)CC[C@@H](O)[C@@H](C)[C@@H]4CC[C@@]32C)/C1=C(\CCC=C(C)C)C(=O)O [Example 46, 16-Deacetoxy-16β-ethoxyfusidic acid] | 0.05 (≈ 0.0995 µM) | 1 (≈ 1.99 µM) | 0.025 (≈ 0.0497 µM) | 1 (≈ 1.99 µM) | 5 (≈ 9.95 µM)
CC(C)=CCC/C(C(=O)O)=C1/[C@@H](OCC(F)(F)F)C[C@@]2(C)[C@H]1C[C@@H](O)[C@H]1[C@@]3(C)CC[C@@H](O)[C@@H](C)[C@@H]3CC[C@@]12C [Example 48, 16-deacetoxy-16β-(2',2',2'-trifluoroethoxy)fusidic acid] | 0.02 (≈ 0.0359 µM) | 32 (≈ 57.5 µM) | 0.016 (≈ 0.0287 µM) | 0.5 (≈ 0.898 µM) | 1 (≈ 1.8 µM)
CC(C)=CCC/C(C(=O)O)=C1/[C@@H](OCCF)C[C@@]2(C)[C@H]1C[C@@H](O)[C@H]1[C@@]3(C)CC[C@@H](O)[C@@H](C)[C@@H]3CC[C@@]12C [Example 50, 16-Deacetoxy-16β-(2'-fluoroethoxy)fusidic acid] | 0.05 (≈ 0.096 µM) | 0.32 (≈ 0.615 µM) | 0.02 (≈ 0.0384 µM) | 0.63 (≈ 1.21 µM) | 2.5 (≈ 4.8 µM)
CC(C)=CCC/C(C(=O)O)=C1/[C@@H](OC(CF)CF)C[C@@]2(C)[C@H]1C[C@@H](O)[C@H]1[C@@]3(C)CC[C@@H](O)[C@@H](C)[C@@H]3CC[C@@]12C [Example 52] | 0.04 (≈ 0.0724 µM) | 0.63 (≈ 1.14 µM) | 0.025 (≈ 0.0452 µM) | 0.5 (≈ 0.905 µM) | 3.2 (≈ 5.79 µM)
CCO[C@H]1C[C@@]2(C)[C@@H](CC(=O)[C@H]3[C@@]4(C)CC[C@@H](O)[C@@H](C)[C@@H]4CC[C@@]32C)/C1=C(\CCC=C(C)C)C(=O)O [Example 75, 11-Keto-16-deacetoxy-16β-ethoxyfusidic acid] | 0.05 (≈ 0.0999 µM) | 13 (≈ 26 µM) | 0.02 (≈ 0.0399 µM) | 1 (≈ 2 µM) | 3.2 (≈ 6.39 µM)
CC(C)=CCC/C(C(=O)O)=C1/[C@@H](OCCF)C[C@@]2(C)[C@H]1CC(=O)[C@H]1[C@@]3(C)CC[C@@H](O)[C@@H](C)[C@@H]3CC[C@@]12C [Example 76, 11-Keto-16-deacetoxy-16β-(2'-fluoroethoxy)fusidic acid] | 0.032 (≈ 0.0617 µM) | 2 (≈ 3.86 µM) | 0.025 (≈ 0.0482 µM) | 1.6 (≈ 3.08 µM) | 4 (≈ 7.71 µM)
CC(=O)O[C@H]1C[C@@]2(C)[C@@H](C[C@@H](O)[C@H]3[C@@]4(C)CC[C@@H](O)[C@@H](C)[C@@H]4CC[C@@]32C)/C1=C(\CCC=C(C)C)C(=O)O [Fusidic acid, reference compound] | 0.2 (≈ 0.387 µM) | 1.6 (≈ 3.1 µM) | 0.032 (≈ 0.0619 µM) | 0.79 (≈ 1.53 µM) | 1.6 (≈ 3.1 µM)
